Reference: ChEMBL document CHEMBL1123761, “Inhibition of the mammalian beta-lactamase renal dipeptidase (dehydropeptidase-I) by (Z)-2-(acylamino)-3-substituted-propenoic acids” (J Med Chem, 1987)

These molecules were tested against T1, Dipeptidase 1 (Sus scrofa, UniProt P22412) (assay: Inhibitory activity against beta-lactamase renal dipeptidase).
T1 sequence (P22412 whole entry): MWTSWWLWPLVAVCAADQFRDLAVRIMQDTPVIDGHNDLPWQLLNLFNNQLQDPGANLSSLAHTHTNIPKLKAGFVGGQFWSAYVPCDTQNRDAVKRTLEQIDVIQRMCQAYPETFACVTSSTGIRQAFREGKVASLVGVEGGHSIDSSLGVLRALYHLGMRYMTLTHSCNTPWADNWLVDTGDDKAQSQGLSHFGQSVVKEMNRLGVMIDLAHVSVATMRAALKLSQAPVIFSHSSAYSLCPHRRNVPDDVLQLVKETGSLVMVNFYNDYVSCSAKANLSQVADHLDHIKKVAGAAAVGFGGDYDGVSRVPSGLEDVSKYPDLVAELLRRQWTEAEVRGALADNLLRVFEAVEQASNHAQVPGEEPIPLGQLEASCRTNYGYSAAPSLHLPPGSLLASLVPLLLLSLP

SMILES | Ki [nM]
CC(=O)NCCCCC/C=C(\NC(=O)C1CC1(C)C)C(=O)O (stereo not drawn) | 230
CC1(C)CC1C(=O)N/C(=C\CCCCSCC(=O)C(=O)O)C(=O)O (stereo not drawn) | 160
C/C=C(\NC(=O)C1CC12CC2)C(=O)O (stereo not drawn) | 1600
C/C=C(\NC(=O)c1ccccc1Cl)C(=O)O | 25000
CC1(C)C[C@@H]1C(=O)N/C(=C\CCCCSC[C@H](N)C(=O)O)C(=O)O (stereo in doubt; 175) [CILASTATIN] | 190
CNC(CSCCCC/C=C(\NC(=O)[C@H]1CC1(C)C)C(=O)O)C(=O)O (stereo partly drawn) | 150
C/C=C(\NC(=O)[C@H]1[C@H](C)[C@@H]1C)C(=O)O | 4600
C/C=C(\NC(=O)CCCC(=O)OCC)C(=O)O | 39000
CC1(C)CC1C(=O)N/C(=C\CCCCCCC[N+](C)(C)Cc1ccccc1)C(=O)[O-] (stereo not drawn) | 450
C/C=C(\NC(=O)CCCNC(=O)CC(C)C)C(=O)O | 52000
CC1(C)CC1C(=O)N/C(=C\CCCCCN)C(=O)O (stereo not drawn) | 1000
C=C(NC(=O)C1CC1(C)C)C(=O)O (stereo not drawn) | 52000
C/C=C(\NC(=O)C1CCCCC1)C(=O)O | 15000
CC1(C)CC1C(=O)N/C(=C\CCCCCC/C=C(\NC(=O)C1CC1(C)C)C(=O)O)C(=O)O (stereo not drawn) | 92
C/C=C(\NC(=O)C1CC1(Cl)Cl)C(=O)O (stereo not drawn) | 80
CC1(C)CC1C(=O)N/C(=C\CCCCCBr)C(=O)O (stereo not drawn) | 270
C/C=C(\NC(=O)CC(C)(C)C)C(=O)O | 20000
C=CCC/C=C(\NC(=O)C1CC1(C)C)C(=O)O (stereo not drawn) | 230
CC1(C)C[C@@H]1C(=O)N/C(=C\CCCCCNC(C)(C)P(=O)(O)O)C(=O)O | 180
CC1(C)CC1C(=O)N/C(=C\CCCCCSCC(N)C(=O)O)C(=O)O (stereo not drawn) | 230
CC1(C)CC1C(=O)N/C(=C\CCCCSCC(=O)O)C(=O)O (stereo not drawn) | 130

SMILES | Ki [nM]
CC1(C)CC1C(=O)N/C(=C\CCCCC[n+]1ccccc1)C(=O)[O-] (stereo not drawn) | 1090
CC1(C)CC1C(=O)N/C(=C\CCCCCNCP(=O)(O)O)C(=O)O (stereo not drawn) | 400
CC1(C)CC1C(=O)N/C(=C\CCCCCSCC(N)=O)C(=O)O (stereo not drawn) | 250
COCCCC/C=C(\NC(=O)C1CC1(C)C)C(=O)O (stereo not drawn) | 160
C/C=C(\NC(=O)[C@H]1[C@@H]2CCCC[C@@H]21)C(=O)O | 4200
CC1(C)CC1C(=O)N/C(=C\CCCCSc1ncccc1O)C(=O)O (stereo not drawn) | 20
C/C=C(\NC(=O)CCCCCCCC)C(=O)O | 32000
CC1(C)CC1C(=O)N/C(=C\CCCCS(=O)(=O)O)C(=O)O (stereo not drawn) | 87
C/C=C(\NC(=O)CCCCCCCCCC)C(=O)O | 19000
C/C=C(\NC(=O)CSCC)C(=O)O | 31000
CC1(C)CC1C(=O)N/C(=C\CCCCCCBr)C(=O)O (stereo not drawn) | 160
CC1(C)CC1C(=O)N/C(=C\CCCCCNCCP(=O)(O)O)C(=O)O (stereo not drawn) | 580
C#CCNCCCCC/C=C(\NC(=O)C1CC1(C)C)C(=O)O (stereo not drawn) | 740
CC(C)CC(=O)N/C(=C\CCC(=O)O)C(=O)O | 2700
C/C=C(\NC(=O)CCCCCCCCCCC)C(=O)O | 35000
CN(C)CCCCC/C=C(\NC(=O)C1CC1(C)C)C(=O)O (stereo not drawn) | 1280
CN(CCCCC/C=C(\NC(=O)C1CC1(C)C)C(=O)O)CC(=O)O (stereo not drawn) | 290
C/C=C(\NC(=O)[C@@H]1C[C@H]1CC)C(=O)O | 1600
CC1(C)CC1C(=O)N/C(=C\CC(F)(F)F)C(=O)O (stereo not drawn) | 240
C/C=C(\NC(=O)CCCCCCCCC(=O)O)C(=O)O | 28000
CSCCCCC/C=C(\NC(=O)C1CC1(C)C)C(=O)O (stereo not drawn) | 150

SMILES | Ki [nM]
CC1(C)CC1C(=O)N/C(=C\CCCCCNC1=NCCN1)C(=O)O (stereo not drawn) | 840
CC1(C)CC1C(=O)N/C(=C\C1CC1)C(=O)O (stereo not drawn) | 440
C/C=C(\NC(=O)CCCCCBr)C(=O)O | 19000
C/C=C(\NC(=O)c1cccc(Cl)c1)C(=O)O | 22000
CCCCCC/C=C(\NC(=O)C1CC1(C)C)C(=O)O (stereo not drawn) | 160
C/C=C(\NC(=O)CC(C)CCCC(C)C)C(=O)O (stereo not drawn) | 4000
CC1(C)CC1C(=O)N/C(=C\CCCCCC#N)C(=O)O (stereo not drawn) | 82
C[N+](C)(C)CCCCC/C=C(\NC(=O)C1CC1(Cl)Cl)C(=O)O (stereo not drawn) | 180
CC1(C)CC1C(=O)N/C(=C\CCCSCP(=O)(O)O)C(=O)O (stereo not drawn) | 220
COC(=O)CSCCCCC/C=C(\NC(=O)C1CC1(C)C)C(=O)O (stereo not drawn) | 200
CCCCC/C=C(/NC(=O)C1CC1(C)C)C(=O)O (stereo not drawn) | 11200
C/C=C(\NC(=O)CC(C)CCCC(C)(C)O)C(=O)O (stereo not drawn) | 67000
C/C=C(\NC(=O)C1CCC1C)C(=O)O (stereo not drawn) | 4700
CCOC(=S)SCCCCC/C=C(\NC(=O)C1CC1(C)C)C(=O)O (stereo not drawn) | 44
CCCCC/C=C(\NC(=O)C1CC1(Cl)Cl)C(=O)O (stereo not drawn) | 60
CC1(C)CC1C(=O)N/C(=C\CCCCCO)C(=O)O (stereo not drawn) | 230
C/C=C(\NC(=O)C=C(C)C)C(=O)O | 28000
CC1(C)CC1C(=O)N/C(=C\CCCCBr)C(=O)O (stereo not drawn) | 150
C/C=C(\NC(=O)[C@@H]1C[C@@H]1C)C(=O)O | 12000
C/C=C(\NC(=O)CC1CCCC1)C(=O)O | 9800

Continued by falling Ki, values first:

Ki [nM] | SMILES
164000 | C/C=C(\NC(=O)C1(C)CC1(Cl)Cl)C(=O)O (stereo not drawn)
102000 | C/C=C(\NC(=O)CCCNC(C)=O)C(=O)O
70000 | C/C=C(\NC(=O)c1ccccc1)C(=O)O
41000 | C/C=C(\NC(=O)CCCCCNC(=O)CC)C(=O)O
34000 | C=CCCCCCCCCC(=O)N/C(=C\C)C(=O)O
25000 | C/C=C(\NC(=O)CC1CCCCC1)C(=O)O
25000 | C/C=C(\NC(=O)CCCCC#N)C(=O)O
18000 | C/C=C(\NC(=O)CCCCC(=O)OCC)C(=O)O
14000 | C/C=C(\NC(=O)CCC(C)C)C(=O)O
12000 | C/C=C(\NC(=O)C1CCCCCC1)C(=O)O
11200 | C/C=C(\NC(=O)C1CC(C)(C)C1)C(=O)O
10000 | C/C=C(\NC(=O)CCCc1cccs1)C(=O)O
10000 | C/C=C(\NC(=O)CCCCC(=O)N/C(=C\C)C(=O)O)C(=O)O
8800 | CCCCC/C=C(\NC(=O)[C@@H]1CC1(C)C)C(=O)O
7200 | C/C=C(\NC(=O)C1C(C)C1(C)C)C(=O)O (stereo not drawn)
6500 | C/C=C(\NC(=O)[C@@H]1C[C@H]1C(C)(C)C)C(=O)O
5000 | C/C=C(\NC(=O)[C@@H]1C[C@H]1c1ccccc1)C(=O)O
3450 | CN(C)CCCC/C=C(\NC(=O)C1CC1(C)C)C(=O)O (stereo not drawn)
3300 | C/C=C(\NC(=O)C(C)C(C)C)C(=O)O (stereo not drawn)

Ki [nM] | SMILES
3000 | C/C=C(\NC(=O)C1CC1)C(=O)O
2100 | C/C=C(\NC(=O)C1CC1(F)F)C(=O)O (stereo not drawn)
1700 | C/C=C(\NC(=O)[C@@H]1C[C@H]1C)C(=O)O
910 | CC1(C)CC1C(=O)N/C(=C\CCCCC[N+](C)(C)CCO)C(=O)[O-] (stereo not drawn)
870 | C=CCNCCCCC/C=C(\NC(=O)C1CC1(C)C)C(=O)O (stereo not drawn)
860 | CCN(CC)CCCCC/C=C(\NC(=O)C1CC1(C)C)C(=O)O (stereo not drawn)
810 | CC1(C)CC1C(=O)N/C(=C\CCCCCCCN)C(=O)O (stereo not drawn)
780 | CC1(C)CC1C(=O)N/C(=C\CCCCCNC=N)C(=O)O (stereo not drawn)
650 | CC1(C)C[C@@H]1C(=O)N/C(=C\CCCCC[N+](C)(C)C)C(=O)[O-]
570 | CC1(C)CC1C(=O)N/C(=C\CCCCCCC[N+](C)(C)C)C(=O)[O-] (stereo not drawn)
560 | CN(CCCC/C=C(\NC(=O)C1CC1(C)C)C(=O)O)CC(=O)O (stereo not drawn)
520 | CN(C)CCCCCCC/C=C(\NC(=O)C1CC1(C)C)C(=O)O (stereo not drawn)
400 | CN(CCCCCC/C=C(\NC(=O)C1CC1(C)C)C(=O)O)CC(=O)O (stereo not drawn)
380 | CC1(C)CC1C(=O)N/C(=C\CCCBr)C(=O)O (stereo not drawn)
300 | CC1(C)CC1C(=O)N/C(=C\CCCCCNC(N)=O)C(=O)O (stereo not drawn)
280 | COC(=O)CSCCC/C=C(\NC(=O)C1CC1(C)C)C(=O)O (stereo not drawn)
280 | CC(NCCCCC/C=C(\NC(=O)C1CC1(C)C)C(=O)O)P(=O)(O)O (stereo not drawn)
270 | CC1(C)CC1C(=O)N/C(=C\CCCSCC(N)C(=O)O)C(=O)O (stereo not drawn)
210 | CC1(C)C[C@@H]1C(=O)N/C(=C\CCCCSC[C@H](N)C(=O)O)C(=O)O (stereo in doubt; 174) [CILASTATIN]

Ki [nM] | SMILES
210 | CC1(C)CC1C(=O)N/C(=C\CCCCC#N)C(=O)O (stereo not drawn)
180 | COCCCCC/C=C(\NC(=O)C1CC1(C)C)C(=O)O (stereo not drawn)
170 | CC1(C)CC1C(=O)N/C(=C\CCCCCS)C(=O)O (stereo not drawn)
160 | CC(NCCCCC/C=C(\NC(=O)[C@H]1CC1(C)C)C(=O)O)P(=O)(O)O (stereo partly drawn)
140 | CC1(C)CC1C(=O)N/C(=C\CCC(=O)O)C(=O)O (stereo not drawn)
130 | CC1(C)CC1C(=O)N/C(=C\CCCSc1ncccc1O)C(=O)O (stereo not drawn)
110 | CCCCCCCC/C=C(\NC(=O)C1CC1(C)C)C(=O)O (stereo not drawn)
110 | CC1(C)CC1C(=O)N/C(=C\CCCCCCCBr)C(=O)O (stereo not drawn)
110 | CCCCCCCCC/C=C(\NC(=O)C1CC1(C)C)C(=O)O (stereo not drawn)
110 | CC1(C)C[C@@H]1C(=O)N/C(=C\CCCCSC[C@H](N)C(=O)O)C(=O)O (stereo in doubt; 176) [CILASTATIN]
100 | CC1(C)CC1C(=O)N/C(=C\CCCCSc1ccccc1)C(=O)O (stereo not drawn)
96 | CCCCCCC/C=C(\NC(=O)C1CC1(C)C)C(=O)O (stereo not drawn)
60 | CC(=O)NC(CSCCCC/C=C(\NC(=O)[C@H]1CC1(C)C)C(=O)O)C(=O)O (stereo partly drawn)
60 | CC1(C)CC1C(=O)N/C(=C\CCCCSc1ccccc1C(=O)O)C(=O)O (stereo not drawn)
58 | CC1(C)CC1C(=O)N/C(=C\CCCCC(=O)O)C(=O)O (stereo not drawn)
40 | CC1(C)CC1C(=O)N/C(=C\CCCCSc1ncccc1C(=O)O)C(=O)O (stereo not drawn)
30 | C/C=C(\NC(=O)C1CC1(Br)Br)C(=O)O (stereo not drawn)
15 | CCC/C=C(\NC(=O)C1CC1(Br)Br)C(=O)O (stereo not drawn)
